For data set [1], the system named is 3D7 strain of Plasmodium falciparum. The data set is described as follows: In vitro antimalarial activity, 48-h [3H]-hypoxanthine incorporation assay. It is filed as cell-based. The protocol: The 3D7 strain of Plasmodium falciparum was used in this study. This strain is known to be […] Parasites were maintained in continuous culture using the method of Jensen and Trager^4. […] Stock drug solutions were prepared in 100% dimethylsulphoxide (DMSO) and diluted to the appropriate concentration using complete medium. Assays were performed in sterile 96-well microlitre plates, each plate contained 200 μl of parasite culture (2% parasitemia, 0.5% haematocrit) with or without 10 μl drug dilutions. Each drug was tested in triplicate and parasite growth compared to control wells (which constituted 100% parasite growth). […] IC50 values were calculated by interpolation of the probit transformation of the log dose-response curve.

In data set [2] the test system is Salmonella typhimurium NM2009. The data set is described as follows: Salmonella typhimurium SOS/umu genotoxicity assay. The text has this:
(§1) This assay is based on the ability of DNA damaging agents to induce the expression of the umu operon. The Salmonella strains have a plasmid pSK1002 which carries an umuC-lacZ fused gene that produces a hybrid protein with β-galactosidase activity and whose expression is controlled by the umu regulatory region.

Data set [3] has as its system Salmonella typhimurium TA1535/pSK1002. In words: Salmonella typhimurium SOS/umu genotoxicity assay.
Text: as §1

The mark [4] stands for this setting: 3D7, sulfonamide dispiro 1,2,4,5-tetraoxanes, Table 8, read-out: Mean IC50.
Setting [5] is: 3D7, 3D7 strain, mean of triplicate results, Table 5, read-out: Mean IC50.

Structures are written as SMILES. Read-outs that look alike come from different tables or passages of the source.

For orientation: IC50 means the concentration at which inhibition is half-maximal. For `O=S(=O)(c1ccc(Cl)cc1)N1CCC2(CC1)OOC1(OO2)C2CC3CC(C2)CC1C3` [Tetraoxane 39h], in data set [1] (setting [4]), the IC50 came out at 0.0227 µM. One may read the melting point as the temperature of the solid-liquid transition. On to `O=C(CC1CCC2(CC1)OOC1(CCCCCCCCCCC1)OO2)N1CCSCC1` [Tetraoxane 28i, 2-(7,8,21,22-Tetraoxa-dispiro[5.2.11.2]docos-3-yl)-1-thiomorpholin-4-yl-ethanone], for which the melting point lay within 108 to 110 °C. Moreover, in data set [1] (setting [5]), the IC50 turned out to be 0.0269 µM.

On to `CCS(=O)(=O)N1C2CCC1CC1(C2)OOC2(OO1)C1CC3CC(C1)CC2C3` (stereo not shown) [Tetraoxane 41d, Tropinone derived 1,2,4,5-tetraoxane], for which the IC50 in data set [1] (setting [4]) was found to be 0.0606 µM.

For `O=C(CC1CCC2(CC1)OOC1(CCCCCCCCCCC1)OO2)N1CCOCC1` [Tetraoxane 28h, 1-Morpholin-4-yl-2-(7,8,21,22-tetraoxa-dispiro[5.2.11.2]docos-3-yl)-ethanone], the melting point lay within 118 to 120 °C. In data set [1] (setting [5]), the IC50 came to 0.0237 µM. On to `CC(C)S(=O)(=O)N1CCC2(CC1)OOC1(CCCCCCCCCCC1)OO2` [Tetraoxane 40c], for which the IC50 in data set [1] (setting [4]) was 0.0864 µM. Compound `O=C(CC1CCC2(CC1)OOC1(OO2)C2CC3CC(C2)CC1C3)N1CCS(=O)(=O)CC1` (stereo not shown) [Tetraoxane 32, 1-(1,1-Dioxo-1λ^6-thiommpholin-4-yl)-2-tetraoxa-dispiro-adamantyl ethanone] registered a melting point of 189 to 191 °C. In data set [1] (setting [5]), the IC50 is 0.0242 µM. As for `CS(=O)(=O)N1CCC2(CC1)OOC1(OO2)C2CC3CC(C2)CC1C3` [Tetraoxane 39a], in data set [1] (setting [4]), the IC50 turned out to be 0.0102 µM. In the case of `O=S(=O)(c1ccccc1)N1CCC2(CC1)OOC1(CCCCCCCCCCC1)OO2` [Tetraoxane 40d], the IC50 in data set [1] (setting [4]) was found to be 0.131 µM.

Compound `O=C(CC1CCC2(CC1)OOC1(CCCCCCCCCCC1)OO2)NCCN1CCCC1` [Tetraoxane 28d, N-(2-Pyrrolidin-1-yl-ethyl)-2-(7,8,21,22-tetraoxa-dispiro[5.2.11.2]do-cos-3-yl)-acetamide] came in with a melting point of 108 to 110 °C.

For `O=C1CCC2(CC1)OOC1(CCCCCCCCCCC1)OO2` [Tetraoxane 11, 7,8,21,22-Tetraoxa-dispiro[5.2.11.2]docosan-3-one], the melting point was in the range of 108 to 110 °C.

Turning to `O=S(=O)(c1ccc(F)cc1)N1CCC2(CC1)OOC1(OO2)C2CC3CC(C2)CC1C3` [Tetraoxane 39g], the IC50 in data set [1] (setting [4]) is 0.0167 µM. For `O=C(CC1CCC2(CC1)OOC1(CCCCCCCCCCC1)OO2)NCCN1CCCCC1` [Tetraoxane 28e, N-(2-Piperidin-1-yl-ethyl)-2-(7,8,21,22-tetraoxadispiro[5.2.11.2]-docos-3-yl)-acetamide], the melting point lay within 96 to 98 °C. The same measure, in the same setting: with `CCN(CC)CCNC(=O)CC1CCC2(CC1)OOC1(CCCCCCCCCCC1)OO2` [Tetraoxane 28g, N-(2-Diethylamino-ethyl)-2-(7,8,21,22-tetraoxa-dispiro[5.2.11.2]-docos-3-yl)-acetamide] the figure was 64 to 66 °C. For `O=C(CC1CCC2(CC1)OOC1(CCCCC1)OO2)NCCN1CCOCC1` [Tetraoxane 27f, N-(2-Morpholin-4-yl-ethyl)-2-(7,8,15,16-tetraoxa-dispiro[5.2.5.2]-hexadec-3-yl)-acetamide], the IC50 in data set [1] (setting [5]) stood at 0.0191 µM. Compound `O=C(CC1CCC2(CC1)OOC1(OO2)C2CC3CC(C2)CC1C3)N1CCSCC1` (stereo not shown) [Tetraoxane 29i, Tetraoxa-dispiro-(adamantly)-thiomorpholin-4-yl-ethanone] returned a melting point of 150 to 152 °C. Also, the IC50 in data set [1] (setting [5]) came to 0.0059 µM.

On to `C[C@@H]1CC[C@H]2[C@@H](C)C(=O)O[C@@H]3O[C@@]4(C)CC[C@@H]1[C@]32OO4` [Artemisinin, reference compound], for which the IC50 in data set [1] (setting [5]) stood at 0.0095 µM; in data set [1] (setting [4]), 0.0092 µM. For `O=C(CC1CCC2(CC1)OOC1(OO2)C2CC3CC(C2)CC1C3)NCCN1CCCC1` (stereo not shown) [Tetraoxane 29d], the melting point fell in the range of 142 to 144 °C. `O=C1CCC2(CC1)OOC1(OO2)C2CC3CC(C2)CC1C3` [Tetraoxane 12, adamantane tetraoxane ketone] displayed a melting point of 156 to 158 °C.

For `CC(C)(C)NCc1cc(Nc2ccnc3cc(Cl)ccc23)ccc1Cl` [Tetraoxane D535, 4′Chloro N-tertbutyl amodiaquin, reference compound], in data set [2], the “MCE NM2009 (Maximum Co w/o effects on bacteria growth or beta-galactosidase production)” value stood at 140 µM and the Potential genotox result is on record as “NEG”. In addition, in data set [3], the “MCE TA1535 (Maximum Co w/o effects on bacteria growth or β-galactosidase production)” value turned out to be 140 µM. In data set [3] (−S9), the “Max. Fold Increase” value worked out at 1.10 ± 0.07 fold and the Potential genotox result is given as “NEG”.

Consider `C1CCC2(CC1)OOC1(CCC(N3CCOCC3)CC1)OO2` [Tetraoxane 19, 4-(7,8,15,16-Tetraoxa-dispiro[5.2.5.2]hexadec-3-yl)-morpholine], for which, in data set [1] (setting [5]), the IC50 was determined as 0.0294 µM. `CCS(=O)(=O)N1CCC2(CC1)OOC1(CCCCCCCCCCC1)OO2` [Tetraoxane 40b]: in data set [1] (setting [4]), the IC50 came out at 0.0291 µM. Take `O=C(N1CCCCC1)N1CCC2(CC1)OOC1(CCCCC1)OO2` [Tetraoxane 34k]: the IC50 in data set [1] (3D7, read-out: Mean IC50) was found to be 0.007 µM.

Regarding `O=S(=O)(CC(F)(F)F)N1CCC2(CC1)OOC1(OO2)C2CC3CC(C2)CC1C3` [Tetraoxane 39e], in data set [1] (setting [4]), the IC50 was 0.0143 µM. As for `O=C(CC1CCC2(CC1)OOC1(CCCCCCCCCCC1)OO2)NC1CC1` [Tetraoxane 28c, N-Cyclopropyl-2-(7,8,21,22-tetraoxa-dispiro[5.2.11.2]docos-3-yl)-acet-amide], the melting point lay within 136 to 138 °C. Further, the IC50 in data set [1] (setting [5]) was determined as 0.0187 µM. Turning to `CCOC(=O)CC1CCC2(CC1)OOC1(CCCCC1)OO2` [Tetraoxane 27a, (7,8,15,16-Tetraoxa-dispiro[5.2.5.2]hexadec-3-yl)acetic acid ethyl ester], in data set [1] (setting [5]), the IC50 was found to be 0.0242 µM.

For the compound `O=C(CC1CCC2(CC1)OOC1(CCCCCCCCCCC1)OO2)N1CCS(=O)(=O)CC1` [Tetraoxane 31, 1-(1,1-Dioxo-1λ^6-thiomorpholin-4-yl)-2-(7,8,21,22-tetraoxa-dispiro[5.2.11.2]docos-3-yl)-ethanone], the melting point lay within 170 to 172 °C. For the same compound, the IC50 in data set [1] (setting [5]) was determined as 0.0926 µM. For `CC(C)S(=O)(=O)N1CCC2(CC1)OOC1(OO2)C2CC3CC(C2)CC1C3` [Tetraoxane 39c], in data set [1] (setting [4]), the IC50 was determined as 0.00587 µM. `O=C(CC1CCC2(CC1)OOC1(OO2)C2CC3CC(C2)CC1C3)NCCN1CCCCC1` (stereo not shown) [Tetraoxane 29e, N-(2-Piperidin-1-yl-ethyl)-[adamantyl]acetamide] gave a melting point of 119 to 121 °C.

For `CS(=O)(=O)N1CCC2(CC1)OOC1(CCCCCCCCCCC1)OO2` [Tetraoxane 40a], the IC50 in data set [1] (setting [4]) was determined as 0.0278 µM. For `O=C(CC1CCC2(CC1)OOC1(CCCCC1)OO2)NCCN1CCCC1` [Tetraoxane 27d, N-(2-Pyrrolidin-1-yl-ethyl)-2-(7,8,15,16-tetraoxa-dispiro[5.2.5.2]-hexadec-3-yl)-acetamide], the melting point was in the range of 110 to 112 °C. For the same compound, the IC50 in data set [1] (setting [5]) turned out to be 0.0191 µM. For the compound `CCN(CC)CCNC(=O)CC1CCC2(CC1)OOC1(CCCCC1)OO2` [Tetraoxane 27g, N-(2-Diethylamino-ethyl)-2-(7,8,15,16-tetraoxa-dispiro[5.2.5.2]-hexadec-3-yl)-acetamide], the IC50 in data set [1] (setting [5]) turned out to be 0.00515 µM.

In the case of `O=C(CC1CCC2(CC1)OOC1(OO2)C2CC3CC(C2)CC1C3)N1CCCCC1` (stereo not shown) [Tetraoxane 29m], the concentration for half-maximal inhibition (IC50) in data set [1] (setting [5]) was found to be 0.0005 µM. Turning to `CC(C)CN1CCN(C(=O)CC2CCC3(CC2)OOC2(OO3)C3CC4CC(C3)CC2C4)CC1` (stereo not shown) [Tetraoxane 29s], in data set [1] (setting [5]), the IC50 amounted to 0.0027 µM. `O=C(CC1CCC2(CC1)OOC1(CCCCC1)OO2)NCCN1CCCCC1` [Tetraoxane 27e, N-(2-Piperidin-1-yl-ethyl)-2-(7,8,15,16-tetraoxa-dispiro[5.2.5.2]-hexadec-3-yl)-acetamide] had a melting point of 68 to 78 °C. In data set [1] (setting [5]), the IC50 came to 0.0192 µM.

Consider `C1CCC2(CC1)OOC1(CCC(NC3CC3)CC1)OO2` [Tetraoxane 14, Cyclopropyl-(7,8,15,16-tetraoxa-dispiro[5.2.5.2]hexadec-3-yl)-amine], for which the IC50 in data set [1] (setting [5]) was 0.02 µM. Take `COC(=O)[C@@H](NC(=O)CC1CCC2(CC1)OOC1(OO2)C2CC3CC(C2)CC1C3)C(C)C` (stereo in doubt) [Tetraoxane 29j, Adamantyl acetamide]: the melting point is 108 to 110 °C.

The compound `O=C(CC1CCC2(CC1)OOC1(CCCCCCCCCCC1)OO2)NCCN1CCOCC1` [Tetraoxane 28f, N-(2-Morpholin-4-yl-ethyl)-2-(7,8,21,22-tetraoxa-dispiro[5.2.11.2]do-cos-3-yl)-acetamide] had a melting point of 78 to 80 °C.

Compound `O=C1CCC2(CC1)OOC1(CCCCC1)OO2` [Tetraoxane 10, 7,8,15,16-Tetraoxa-dispiro[5.2.5.2]hexadecan-3-one] returned a melting point of 78 to 80 °C. Besides, the IC50 in data set [1] (setting [5]) came to 0.006 µM. `O=S(=O)(c1ccc(C(F)(F)F)cc1)N1CCC2(CC1)OOC1(OO2)C2CC3CC(C2)CC1C3` [Tetraoxane 39i]: the IC50 in data set [1] (setting [4]) amounted to 0.0207 µM. With `O=C(N1CCCCC1)N1CCC(OO)(OO)CC1` [Tetraoxane 34i, (4,4-dihydroperoxypiperidin-1-yl)(piperidin-1-yl)methanone], in data set [1] (3D7, read-out: Mean IC50), the IC50 amounted to 0.0072 µM. Take `O=C1CCN(C(=O)N2CCOCC2)CC1` [Tetraoxane 34f, 1-(Morpholine-4-carbonyl)-piperidin-4-one]: the IC50 in data set [1] (3D7, read-out: Mean IC50) worked out at 0.0047 µM.

For the origin of these results see patent US20100113436A1, “DISPIRO TETRAOXANE COMPOUNDS AND THEIR USE IN THE TREATMENT OF MALARIA AND/OR CANCER” (priority 2006, published 2010).
